pEC50: −log10 of the molar value. Like-named read-outs stand apart in the source and are kept apart here.
Biological target: FXR (Homo sapiens (Human), UniProt Q96RI1)
Assay: transient human FXR/Gal4-luciferase reporter assay
Type: cell-based
Summary of the method: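 Compound exposure ran overnight at 37 °C and activity was measured as luminescence with Steady-Glo reagent. The cells were a HEK293 line stably expressing firefly luciferase under five Gal4 response elements. They were transiently transfected, one night beforehand, with a plasmid encoding Gal4 DNA-binding domain fused to the human FXR ligand-binding domain.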

[1] = Gal4-hFXR fusion construct, HEK293 reporter cells, response relative to 8 μM GW-4064

Sequence of FXR (Q96RI1 262-486): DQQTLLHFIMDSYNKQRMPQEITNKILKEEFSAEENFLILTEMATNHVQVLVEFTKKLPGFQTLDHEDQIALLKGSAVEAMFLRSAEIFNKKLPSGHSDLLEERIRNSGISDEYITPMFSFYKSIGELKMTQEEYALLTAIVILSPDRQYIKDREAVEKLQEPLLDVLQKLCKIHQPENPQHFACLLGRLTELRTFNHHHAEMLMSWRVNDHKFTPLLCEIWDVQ

Structure (SMILES)	pEC50 [1]	pEC50
CC(C)(O)c1ccc(-c2cccc(N(CC34CCC(c5noc(C(C)(C)F)n5)(CC3)CC4)C(=O)N3CC4(C3)CS(=O)(=O)C4)c2)cc1 [Example 641, N-((4-(5-(2-fluoropropan-2-yl)-1,2,4-oxadiazol-3-yl)bicyclo[2.2.2]octan-1-yl)methyl)-N-(4′-(2-hydroxypropan-2-yl)-[1,1′-biphenyl]-3-yl)-2-thia-6-azaspiro[3.3]heptane-6-carboxamide 2,2-dioxide]	5.89	
Cn1nc(C2CC2)cc1C12CCC(CN(C(=O)C34CC(F)(C3)C4)c3cccc(-c4ccc(NS(C)(=O)=O)cc4)c3)(CC1)CC2 [Example 412, N-((4-(3-cyclopropyl-1-methyl-1H-pyrazol-5-yl)bicyclo[2.2.2]octan-1-yl)methyl)-3-fluoro-N-(4′-(methylsulfonamido)-[1,1′-biphenyl]-3-yl)bicyclo[1.1.1]pentane-1-carboxamide]	6.98	
CCOc1ccc(-c2cccc(N(CC34CCC(c5noc(C(C)(C)C)n5)(CC3)CC4)C(=O)C34CC(F)(C3)C4)c2)cc1 [Example 439, N-((4-(5-(tert-butyl)-1,2,4-oxadiazol-3-yl)bicyclo[2.2.2]octan-1-yl)methyl)-N-(4′-ethoxy-[1,1′-biphenyl]-3-yl)-3-fluorobicyclo[1.1.1]pentane-1-carboxamide]	7.15	
CC(C)(C)c1noc(C23CCC(CN(C(=O)C45CC(F)(C4)C5)c4cncc(-c5ccc(NS(C)(=O)=O)cc5)c4)(CC2)CC3)n1 [Example 475, N-((4-(3-(tert-butyl)-1,2,4-oxadiazol-5-yl)bicyclo[2.2.2]octan-1-yl)methyl)-3-fluoro-N-(5-(4-(methylsulfonamido)phenyl)pyridin-3-yl)bicyclo[1.1.1]pentane-1-carboxamide]		5.80
O=C(N(CC12CCC(c3nc(C4CC4)no3)(CC1)CC2)c1cccc(-c2cc(Cl)cc(Cl)c2)c1)C12CC(F)(C1)C2 [Example 250, N-((4-(3-cyclopropyl-1,2,4-oxadiazol-5-yl)bicyclo[2.2.2]octan-1-yl)methyl)-N-(3′,5′-dichloro-[1,1′-biphenyl]-3-yl)-3-fluorobicyclo[1.1.1]pentane-1-carboxamide]	6.11	
COc1nccc(-c2cccc(N(CC34CCC(c5nc(C6CC6)no5)(CC3)CC4)C(=O)C3CCC3)c2)n1 [Example 244, N-((4-(3-cyclopropyl-1,2,4-oxadiazol-5-yl)bicyclo[2.2.2]octan-1-yl)methyl)-N-(3-(2-methoxypyrimidin-4-yl)phenyl)cyclobutanecarboxamide]	6.24	
O=C(N(CC12CCC(c3noc(C4(F)CC4)n3)(CC1)CC2)c1cccc(-c2cnc(C3CC3)nc2)c1)C12CC(F)(C1)C2 [Example 579, N-(3-(2-cyclopropylpyrimidin-5-yl)phenyl)-3-fluoro-N-((4-(5-(1-fluorocyclopropyl)-1,2,4-oxadiazol-3-yl)bicyclo[2.2.2]octan-1-yl)methyl)bicyclo[1.1.1]pentane-1-carboxamide]	7.35	
CCOc1cnc(-c2cccc(N(CC34CCC(c5noc(C(C)(C)C)n5)(CC3)CC4)C(=O)C34CC(F)(C3)C4)c2)nc1 [Example 451, N-((4-(5-(tert-butyl)-1,2,4-oxadiazol-3-yl)bicyclo[2.2.2]octan-1-yl)methyl)-N-(3-(5-ethoxypyrimidin-2-yl)phenyl)-3-fluorobicyclo[1.1.1]pentane-1-carboxamide]	7.33	
CC(C)(C)c1nc(C23CCC(CN(C(=O)C45CC(F)(C4)C5)c4cncc(-c5ccc(OC(F)F)cc5)c4)(CC2)CC3)no1 [Example 483, N-((4-(5-(tert-butyl)-1,2,4-oxadiazol-3-yl)bicyclo[2.2.2]octan-1-yl)methyl)-N-(5-(4-(difluoromethoxy)phenyl)pyridin-3-yl)-3-fluorobicyclo[1.1.1]pentane-1-carboxamide]		6.59
Cc1nc2ccc(-c3cccc(N(CC45CCC(c6nc(C7CC7)no6)(CC4)CC5)C(=O)C45CC(F)(C4)C5)c3)cc2o1 [Example 275, N-((4-(3-cyclopropyl-1,2,4-oxadiazol-5-yl)bicyclo[2.2.2]octan-1-yl)methyl)-3-fluoro-N-(3-(2-methylbenzo[d]oxazol-6-yl)phenyl)bicyclo[1.1.1]pentane-1-carboxamide]	7.23	
CCc1ccc(-c2cccc(N(CC34CCC(c5ccc(C(F)(F)F)cn5)(CC3)CC4)C(=O)C34CC(F)(C3)C4)c2)cc1 [Example 497, N-(4′-ethyl-[1,1′-biphenyl]-3-yl)-3-fluoro-N-((4-(5-(trifluoromethyl)pyridin-2-yl)bicyclo[2.2.2]octan-1-yl)methyl)bicyclo[1.1.1]pentane-1-carboxamide]		6.00
CC(C)(C)c1nc(C23CCC(CN(C(=O)C45CC(F)(C4)C5)c4cccc(-c5ccc(OC(F)F)cc5)c4)(CC2)CC3)no1 [Example 444, N-((4-(5-(tert-butyl)-1,2,4-oxadiazol-3-yl)bicyclo[2.2.2]octan-1-yl)methyl)-N-(4′-(difluoromethoxy)-[1,1′-biphenyl]-3-yl)-3-fluorobicyclo[1.1.1]pentane-1-carboxamide]	7.21	
O=C(N(CC12CCC(c3noc(C(F)F)n3)(CC1)CC2)c1cccc(-c2ccc(OC(F)F)cc2)c1)C12CC(F)(C1)C2 [Example 465, N-(4′-(difluoromethoxy)-[1,1′-biphenyl]-3-yl)-N-((4-(5-(difluoromethyl)-1,2,4-oxadiazol-3-yl)bicyclo[2.2.2]octan-1-yl)methyl)-3-fluorobicyclo[1.1.1]pentane-1-carboxamide]		6.74
Cc1cc(-c2cccc(N(CC34CCC(c5nc(C6CC6)no5)(CC3)CC4)C(=O)C34CC(F)(C3)C4)c2)cnc1F [Example 247, N-((4-(3-cyclopropyl-1,2,4-oxadiazol-5-yl)bicyclo[2.2.2]octan-1-yl)methyl)-3-fluoro-N-(3-(6-fluoro-5-methylpyridin-3-yl)phenyl)bicyclo[1.1.1]pentane-1-carboxamide]	6.47	
CC(C)(O)c1ccc(-c2cccc(N(CC34CCC(c5noc(C(C)(C)F)n5)(CC3)CC4)C(=O)N[C@H]3CC[C@](C)(O)CC3)c2)cc1 [Example 599, 1-((4-(5-(2-fluoropropan-2-yl)-1,2,4-oxadiazol-3-yl)bicyclo[2.2.2]octan-1-yl)methyl)-3-((trans)-4-hydroxy-4-methylcyclohexyl)-1-(4′-(2-hydroxypropan-2-yl)-[1,1′-biphenyl]-3-yl)urea]	7.52	
CCOc1ncc(-c2cccc(N(CC34CCC(c5nc(C(C)(C)C)no5)(CC3)CO4)C(=O)C34CC(F)(C3)C4)c2)cn1 [Example 553, N-((4-(3-(tert-butyl)-1,2,4-oxadiazol-5-yl)-2-oxabicyclo[2.2.2]octan-1-yl)methyl)-N-(3-(2-ethoxypyrimidin-5-yl)phenyl)-3-fluorobicyclo[1.1.1]pentane-1-carboxamide]	5.80	
CCOc1ccc(-c2cccc(N(CC34CCC(c5noc(C6(C(F)(F)F)CC6)n5)(CC3)CC4)C(=O)C34CC(F)(C3)C4)c2)cc1 [Example 521, N-(4′-ethoxy-[1,1′-biphenyl]-3-yl)-3-fluoro-N-((4-(5-(1-(trifluoromethyl)cyclopropyl)-1,2,4-oxadiazol-3-yl)bicyclo[2.2.2]octan-1-yl)methyl)bicyclo[1.1.1]pentane-1-carboxamide]	6.95	
CCOc1ncc(-c2cccc(N(CC34CCC(c5ccc(C(F)(F)F)cn5)(CC3)CC4)C(=O)C34CC(F)(C3)C4)c2)cn1 [Example 487, N-(3-(2-ethoxypyrimidin-5-yl)phenyl)-3-fluoro-N-((4-(5-(trifluoromethyl)pyridin-2-yl)bicyclo[2.2.2]octan-1-yl)methyl)bicyclo[1.1.1]pentane-1-carboxamide]	6.38	
O=C(N(CC12CCC(c3nc(C4CC4)no3)(CC1)CC2)c1cccc(-c2cnc(C3CC3)nc2)c1)C12CC(F)(C1)C2 [Example 271, N-((4-(3-cyclopropyl-1,2,4-oxadiazol-5-yl)bicyclo[2.2.2]octan-1-yl)methyl)-N-(3-(2-cyclopropylpyrimidin-5-yl)phenyl)-3-fluorobicyclo[1.1.1]pentane-1-carboxamide]	7.64	
CCc1ccc(-c2cccc(N(CC34CCC(c5nc(C6CC6)no5)(CC3)CC4)C(=O)C34CC(F)(C3)C4)c2)cc1 [Example 285, N-((4-(3-cyclopropyl-1,2,4-oxadiazol-5-yl)bicyclo[2.2.2]octan-1-yl)methyl)-N-(4′-ethyl-[1,1′-biphenyl]-3-yl)-3-fluorobicyclo[1.1.1]pentane-1-carboxamide]	6.65	
O=C(N(CC12CCC(c3nc(C4CC4)no3)(CC1)CC2)c1cccc(-c2ccc3ncsc3c2)c1)C12CC(F)(C1)C2 [Example 277, N-(3-(benzo[d]thiazol-6-yl)phenyl)-N-((4-(3-cyclopropyl-1,2,4-oxadiazol-5-yl)bicyclo[2.2.2]octan-1-yl)methyl)-3-fluorobicyclo[1.1.1]pentane-1-carboxamide]	7.46	
CC(C)(C#N)Oc1ccc(-c2cccc(N(CC34CCC(c5noc(C6(F)CC6)n5)(CC3)CC4)C(=O)C3CC(O)(C(F)(F)F)C3)c2)cc1 (stereo not drawn) [Example 583, (cis)-N-(4′-((2-cyanopropan-2-yl)oxy)-[1,1′-biphenyl]-3-yl)-N-((4-(5-(1-fluorocyclopropyl)-1,2,4-oxadiazol-3-yl)bicyclo[2.2.2]octan-1-yl)methyl)-3-hydroxy-3-(trifluoromethyl)cyclobutane-1-carboxamide]	7.31	
CC(C)(C)NC(=O)N(CC12CCC(c3noc(C(F)(F)F)n3)(CC1)CC2)c1cccc(-c2ccc(C(C)(C)OC(F)F)cc2)c1 [Example 613, 3-(tert-butyl)-1-(4′-(2-(difluoromethoxy)propan-2-yl)-[1,1′-biphenyl]-3-yl)-1-((4-(5-(trifluoromethyl)-1,2,4-oxadiazol-3-yl)bicyclo[2.2.2]octan-1-yl)methyl)urea]	7.10	
CC(C)(C)NC(=O)N(CC12CCC(c3noc(C(F)(F)F)n3)(CC1)CC2)c1cccc(-c2ccc(C(C)(C)O)cc2)c1 [Example 611, 3-(tert-butyl)-1-(4′-(2-hydroxypropan-2-yl)-[1,1′-biphenyl]-3-yl)-1-((4-(5-(trifluoromethyl)-1,2,4-oxadiazol-3-yl)bicyclo[2.2.2]octan-1-yl)methyl) urea]	7.39	
